The record followed here is US20260042801A1, “COMPOSITIONS AND METHODS FOR DYE-BOUND CYCLIZED PEPTIDES FOR MEDICAL USE” (The Texas A&M University System, priority 2022, published 2026).

The target of one assay is T1, TrkB (Homo sapiens, UniProt Q16620).
T1 construct: expressed in transfected cells; host or cells: HEK293 (TrkB-HEK293)
In words: Cell-associated fluorescence saturation binding, TrkB-HEK293 cells. The following applies: 2.5 h, with and without 0.6 nM BDNF. The procedure:
FIG. 2: 5c(i) binds to TrkB and TrkC receptors. Transfected cell lines that are Trk positive cells (TrkB-HEK293 and TrkC-NIH/3T3) and non-transfected cell lines that are Trk negative cells (HEK293 and NIH/3T3) were seeded approximately 2,000 cells/well in a 96-well plate and incubated for 24 hours. The cells were treated with a serial dilution of compound (0, 10, 25, 50, 100, 200, 500, and 1000 nM) in serum-free media (SFM) with and without A) 0.6 nM of BDNF (TrkB-HEK293 and HEK293) and B) 0.2 nM of NT-3 (TrkC-NIH/3T3 and NIH/3T3) for 2.5 h. After that, the cells were washed with PBS once to remove unbound compounds and dissolved in 1% (w/v) aqueous sodium dodecyl sulfate. Cell-associated fluorescence was then determined by measuring the emission of the resulting solution upon λex (540/25 nm) and λem (620/40 nm) using Agilent BioTek Synergy H4 Hybrid Microplate Reader. Kd was calculated by GraphPad Prism 9 using Binding saturation (One site—Specific binding).
Transfected cell lines that are Trk positive cells (TrkA-HeLa, TrkB-HEK293, and TrkC-NIH/3T3) and non-transfected cell lines that are Trk negative cells (HeLa, HEK293, and NIH/3T3) were seeded at 2,000 cells/well in a 96-well plate (0.32 cm^2 growth area) and incubated inside a 5% CO2 incubator at 37° C. for 24 hours. […] The dissociation constant (Kd) was calculated using binding saturation (One site—Specific binding).

In assay [1] the test system is primary adult cortical astrocytes. The experiment in a line: Astrocyte scratch assay (injury model). The assay is classed as cell-based, mouse. The following applies: astrocytes from 6-month-old female mice, 48 hours after scratching. The procedure:
FIGS. 5A-5C: 5c(i) reduces injury size. Primary adult cortical astrocytes from 6-month-old female mice were scratched to form the injury model and immediately after were incubated with 5c(i) for 48 hours (5A). Graph represents mean t SEM. Images represent the 5B) Vehicle and 5C) 5000 nM 5c(i) treated groups stained with Phalloidin. Linear regression was conducted to determine statistical significance. N=10. Scale bar=500 μm.
For neuronal cultures, the neuron enriched fraction was added onto plastic bottom (Greiner-Bio, 781091) plates and incubated inside a 5% C02 incubator at 37° C. for 2 days. Pharmaceutical agents were added at the time of cell plating. For astrocyte cultures, the glia fraction was added onto plastic bottom (Greiner-Bio, 781091) plates and incubated inside a 5% C02 incubator at 37° C. for 5 days for 100% confluency to be reached. Then, the astrocytes were scratched to form the scratch assay model and the pharmaceutical agents were added at the time of scratching. 10,000 cells were plated per well with 0.056 cm^2 growth area for both the neuronal and glia cultures.
Cell cultures were fixed with 4% paraformaldehyde (PFA, 15 min) after the completion of the respective in vitro experiment. […]

T1 sequence (Q16620 32-822, species assumed): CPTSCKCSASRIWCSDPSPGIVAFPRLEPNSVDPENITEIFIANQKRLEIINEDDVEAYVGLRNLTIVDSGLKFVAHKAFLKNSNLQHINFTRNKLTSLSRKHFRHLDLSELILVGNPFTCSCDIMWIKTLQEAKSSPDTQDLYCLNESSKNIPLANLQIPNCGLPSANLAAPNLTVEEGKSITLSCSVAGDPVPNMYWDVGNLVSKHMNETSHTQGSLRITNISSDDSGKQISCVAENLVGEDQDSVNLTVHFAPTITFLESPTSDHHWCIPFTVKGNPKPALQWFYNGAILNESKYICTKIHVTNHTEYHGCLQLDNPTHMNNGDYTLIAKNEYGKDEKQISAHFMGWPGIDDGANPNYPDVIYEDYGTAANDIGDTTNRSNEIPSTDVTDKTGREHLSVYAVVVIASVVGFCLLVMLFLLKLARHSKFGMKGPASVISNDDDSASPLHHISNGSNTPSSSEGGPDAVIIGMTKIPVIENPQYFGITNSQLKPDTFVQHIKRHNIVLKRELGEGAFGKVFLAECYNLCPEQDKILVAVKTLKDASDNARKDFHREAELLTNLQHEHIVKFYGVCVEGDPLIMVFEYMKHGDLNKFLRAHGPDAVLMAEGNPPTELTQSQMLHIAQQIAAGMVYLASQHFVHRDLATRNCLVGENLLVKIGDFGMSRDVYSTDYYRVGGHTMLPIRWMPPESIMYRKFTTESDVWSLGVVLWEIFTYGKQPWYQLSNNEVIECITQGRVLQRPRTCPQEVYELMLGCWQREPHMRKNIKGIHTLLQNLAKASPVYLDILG

On to “C-DIRG-C BODIPY® (fluorescent dye) [5c(i)]”, for which the “affinity for TrkB (Kd)” value on TrkB is reported as “low nanomolar affinity”. The artificial wound closure result in assay [1] was “closing at an expedited rate”.
